According to patent US20050187187A1, “Carboxyl-reduced derivatives of chondroitin sulfate, preparation thereof, use thereof as a medicinal product and the pharmaceutical compositions containing them” (Aventis Pharmas S.A., priority 2003, published 2005):

What was measured:
aggrecanase = test: Effect on aggrecanase: conversion of recombinant substrate Agg1mut, ELISA with BC-3 antibody; type: biochemical; conditions: for % Conversion: conversion of the substrate by aggrecanase in the supernatant
Experimental: Effect of the carboxyl-reduced derivatives on the aggrecanase in synovial fluids or on preparations of recombinant ADAMTS protein.
The analysis is carried out on 96-well plates. Before the analysis, serial dilutions of the assay compounds are prepared in an aqueous solution.
In each well, a fixed volume of synovial fluid or aggrecanase activity generating a known increase, between 1.0 and 1.4 absorbance units (405 nm), under the conditions of the analysis, is mixed with 3 μl of solution of compound from the respective dilution step. Dulbecco's modified Eagle's medium (DMEM) is added to each well to give a final volume of 300 μl. The plate is then incubated for 1 hour at 37° C. in a carbon dioxide atmosphere.
After the addition of 5 μl of a solution of 1 μg/μl of recombinant substrate Agglmut in DMEM to each well (substrate as described by Bartnik E. et al., EP 785274, 1997), the reagent mixture is incubated for 4 hours at 37° C. under a carbon dioxide atmosphere.
In a first step, the microplate is coated with 100 μl per well of a commercial goat anti-mouse IgG antibody for 1 hour at ambient temperature (5 μg/ml in a phosphate buffered saline solution, pH 7.4 [PBS buffer]). After washing with the PBS buffer containing 0.1% of Tween-20 (washing buffer), the wells are blocked by means of a step consisting of a one hour incubation with 100 μl per well of 5% bovine serum albumin in a PBS buffer containing 0.05% of Tween-20. Following another rinse with the washing buffer, each well is incubated with 100 μl of a solution, diluted to 1:1000, of BC-3 antibody in a PBS buffer containing 0.05% of Tween 20 and 0.5% of bovine serum albumin, at ambient temperature for one hour. This antibody recognizes the typical aggrecanase cleavage fragments (Hughes C. E. et al., Biochem. J. 305 (3), 799-804, 1995).
After another rinse of the analytical plate with the washing buffer, the complete set of mixtures originating from the preceding digestion is transferred to this plate, well by well, and incubated at ambient temperature for one hour. The plate is again washed as above. Next, 100 μl of the second antibody (anti-human IgG antibody labeled with peroxidase, 1:1000 in PBS containing 0.5% of BSA and 0.05% of Tween-20) are added to each well, with subsequent incubation at ambient temperature again for one hour. After a final rinse with the washing buffer, the color development is initiated by adding 100 μl of ABTS substrate solution (2 mg/ml, 2,2′-azinobis (3-ethylbenzothiazolinesulfonic acid) in 40 mM of sodium citrate plus 60 mM of disodium hydrogen phosphate, adjusted to a pH of 4.4 by adding acetic acid; 0.25 μl of 35% hydrogen peroxide added per ml immediately before measurement). The measurement is carried out by means of the screen mode using detection at 405 nm relative to a reference filter (620 nm) with automatic readings at 5-second intervals. The development is stopped as soon as the maximum signal (405 nm) in the absorbance range of 1.0 to 1.4 is reached.
% inhibition of conversion of the substrate by activity of the aggrecanase in the supernatant.

bovine factor Xa [1] = target: T1, bovine factor Xa (Bos taurus, UniProt P00743); test: Inhibition of factor Xa, chromogenic substrate S-2765 with human antithrombin III; type: biochemical; conditions: calibrated against Enoxaparin standard
Experimental: For the calibration, a standard sample of low molecular weight heparin (Enoxaparin) was used as reference.
The serial dilutions of the assay compound are prepared in a 0.046 M Tris buffer, pH 8.4, containing 0.15 M NaCl, 0.007 M EDTA, 0.1% of Tween 80 and 0.12 IU/ml of human antithrombin III. The samples of 50 μl of the respective dilutions are incubated with 50 μl of bovine factor Xa (13.6 U/ml) at 37° C. for 80 seconds. Next, 50 μl of chromogenic substrate, 1.1 mM S-2765, are added. The absorbance at 405 nm is measured in a photometer. The activity of the deblocked factor Xa is indicated by the emission of p-nitroaniline from the substrate.
Compared to the reference heparin compound (100 U/mg), the glycosamonoglycans present a factor Xa, with much lower inhibitory activity: […]

MMP-2 (gelatinase-A) = target: T2, MMP-2 (gelatinase-A) (Homo sapiens, UniProt P08253); test: MMP-2 inhibitory activity, commercial ELISA kit; type: biochemical; conditions: MMP-2 800 ng/ml; dilution series in PBS buffer, pH 7.5; in words
T2 construct: purchased Amersham Biosciences RPN2617
T2 sequence (P08253 110-660): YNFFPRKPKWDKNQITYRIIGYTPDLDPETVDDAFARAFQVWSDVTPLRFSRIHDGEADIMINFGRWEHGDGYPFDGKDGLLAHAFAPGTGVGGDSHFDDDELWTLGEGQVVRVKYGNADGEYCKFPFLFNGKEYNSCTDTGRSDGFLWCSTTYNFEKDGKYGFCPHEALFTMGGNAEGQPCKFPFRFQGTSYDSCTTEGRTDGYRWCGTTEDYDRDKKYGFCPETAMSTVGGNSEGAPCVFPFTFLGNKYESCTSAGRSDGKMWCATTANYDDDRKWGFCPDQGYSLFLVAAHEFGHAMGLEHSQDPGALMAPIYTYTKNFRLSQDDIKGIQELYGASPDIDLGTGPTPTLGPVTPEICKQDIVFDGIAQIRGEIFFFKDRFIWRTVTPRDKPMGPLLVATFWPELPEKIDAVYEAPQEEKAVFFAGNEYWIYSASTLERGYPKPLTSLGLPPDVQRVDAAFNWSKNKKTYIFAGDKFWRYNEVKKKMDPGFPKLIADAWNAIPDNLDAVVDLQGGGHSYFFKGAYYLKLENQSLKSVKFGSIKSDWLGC
Experimental: Effect of the Carboxyl-Reduced Persulfate Derivative (Example 1) for Human Metalloproteases MMP-2 (gelatinase-A) and MMP7
Commercial ELISA kits (such as those provided, for example, by the company Amersham Biosciences, kits RPN2617 and RPN2620) were used, respectively, to determine the inhibitory activity with respect to the MMP-2 and MMP-7 enzymes. The concentrations of the enzymes are, respectively, 800 ng/ml for MMP-2. The tests were carried out in accordance with the manufacturer's recommendations, by performing a series of dilutions of the compound to be studied in a PBS buffer, pH 7.5.

bovine factor Xa [2] = target: T1, bovine factor Xa; conditions: standard sample used for calibration; cited from earlier work

T1 sequence (P01008 33-464 partner): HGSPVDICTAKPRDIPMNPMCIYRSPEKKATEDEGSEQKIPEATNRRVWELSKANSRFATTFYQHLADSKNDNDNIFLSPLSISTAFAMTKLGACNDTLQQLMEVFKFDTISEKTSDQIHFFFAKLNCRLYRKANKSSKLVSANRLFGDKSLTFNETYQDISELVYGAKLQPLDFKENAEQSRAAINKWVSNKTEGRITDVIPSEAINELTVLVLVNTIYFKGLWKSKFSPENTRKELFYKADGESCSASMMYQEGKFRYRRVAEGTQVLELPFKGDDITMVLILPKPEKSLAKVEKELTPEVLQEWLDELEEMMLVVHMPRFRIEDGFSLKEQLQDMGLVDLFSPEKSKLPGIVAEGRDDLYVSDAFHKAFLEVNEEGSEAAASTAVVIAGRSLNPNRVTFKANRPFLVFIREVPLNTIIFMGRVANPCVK
T1 sequence (P00743 234-492 limits assumed): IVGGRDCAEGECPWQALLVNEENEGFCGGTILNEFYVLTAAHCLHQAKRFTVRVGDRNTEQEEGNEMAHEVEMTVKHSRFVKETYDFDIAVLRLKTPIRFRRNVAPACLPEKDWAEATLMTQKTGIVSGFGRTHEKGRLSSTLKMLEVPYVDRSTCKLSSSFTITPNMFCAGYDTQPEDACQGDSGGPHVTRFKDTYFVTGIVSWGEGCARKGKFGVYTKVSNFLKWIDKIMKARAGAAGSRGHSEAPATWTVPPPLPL

Carboxyl-Reduced and Persulfated Chondroitin Sulfate Sodium Salt [Example 1]
estimated IC50 (aggrecanase; aggrecanase, estimated): ~4 ng/mL
% Conversion (aggrecanase; glycosaminoglycan 0.0001 μg/ml): 100%
% Conversion (aggrecanase; glycosaminoglycan 0.0003 μg/ml): 99.0%
% Conversion (aggrecanase; glycosaminoglycan 0.001 μg/ml): 95.1%
% Conversion (aggrecanase; glycosaminoglycan 0.003 μg/ml): 69.2%
% Conversion (aggrecanase; glycosaminoglycan 0.01 μg/ml): 11.6%
% Conversion (aggrecanase; glycosaminoglycan 0.03 μg/ml): 14.9%
factor Xa inhibitory activity (bovine factor Xa [1]): 1.2 U/mg
inhibition of MMP-2 (MMP-2 (gelatinase-A)): inhibited in a concentration-dependent manner

Enoxaparin [reference heparin compound]
factor Xa inhibitory activity of the reference standard (bovine factor Xa [2]): 100 U/mg
